{"source": "patent US20030180285A1", "about": "“Treatment of fungal infections with polyene or beta glucan synthase inhibitor anti-fungals combined with anti hsp90 antibodies” (priority 2000, published 2003)", "key": {"[1]": {"system": "C. krusei (FA/157)", "assay": "Broth microdilution test (MIC, colony counts)", "type": "cell-based", "conditions": "for MIC: Pichia kudriavzevii; for MIC / Colony counts: no antibody", "protocol": "(§1) Non-Aspergillus yeast strains used (Table 1) were plated onto Sabouraud's dextrose agar (Oxoid, Basingstoke, UK) and incubated at 37° C. for 24 hours. The strains were identified with the API 20C system (BioMerieux, Marcy L'Etoile, France). If needed, microscopical examinations of morphology on cornmeal agar (Oxoid) was used to confirm the identity.\n(§2) For non-Aspergillus strains, suspensions were prepared from individual colonies (diameter≧1 mm) in 5 ml of sterile 0.85% saline to a density of […] as established by counting on a haemocytometer grid. For Aspergillus strains, see below.\n(§3) RPMI broth was prepared from RPMI 1640 broth medium (Sigma R7880) supplemented with 0.3 g of glutamine per litre, buffered with 34.6 g of morpholine propanesulfonic acid (MOPS) per litre and adjusted to ph 7.0.\n(§4) Twofold dilutions ([…] for amphotericin B and 400 to 0.4 mg/ml for fluconazole) were prepared in RPMI broth starting from the two stock solutions. A 100 μl suspension of the inoculum diluted 1 in 10 (equivalent to 1×10^3 cfu) was added to the microtiter plates. To this was added 50 μl of the antifungal and then 50 μl of the antibody. Antibody was either neat (0.4 mg/mil), or diluted to 1/10or 1/100. When antibody was absent, the 50 μl volume was made up by RPMI. The total volume in each well was 200 μl. Final concentrations of antibody in the experiments were: 100 μg/ml (“neat”), 10 μg/ml (“ 1/10antibody”) or 1 μg/ml (“ 1/100antibody”).\n(§5) Plates were incubated at 37° C. overnight and the minimum inhibitory concentration (MIC) defined by the lower concentration inhibiting growth.\n(§6) Colony counts were determined for the wells where there was a visual reduction in yeast growth. Results were represented as colony forming units per ml of broth (cfu/ml)."}, "[2]": {"system": "C. tropicalis (NCPF #3111)", "assay": "Broth microdilution test (MIC, colony counts)", "type": "cell-based", "conditions": "for MIC: Candida tropicalis, NCPF3111, no antibody", "protocol": "as §1, §2, §3, §4, §5, §6"}, "[3]": {"system": "C. parapsilosis (NCPF #3104)", "assay": "Broth microdilution test (MIC, colony counts)", "type": "cell-based", "conditions": "for MIC: Lodderomyces parapsilosis, NCPF3104, no antibody; for Colony counts: no antibody", "protocol": "as §1, §2, §3, §4, §5, §6"}, "[4]": {"system": "Candida albicans (outbreak)", "assay": "Broth microdilution test (MIC, colony counts)", "type": "cell-based", "protocol": "as §1, §2, §3, §4, §5, §6"}, "[5]": {"system": "Torulopsis glabrata (NCPF #3240)", "assay": "Broth microdilution test (MIC, colony counts)", "type": "cell-based", "conditions": "T. glabrata; for MIC: Nakaseomyces glabratus, NCPF3240", "protocol": "as §1, §2, §3, §4, §5, §6"}, "[6]": {"system": "C. albicans outbreak strain", "assay": "Animal synergy: yeast counts in tissues of infected mice", "type": "in vivo, CD1 mice", "conditions": "Group 1: amphotericin B 0.6 mg/kg only, 48 hours", "procedure": "Thirty CD1 mice (each weighing about 25 g) were injected with 100 μl of C. albicans outbreak strain (equivalent to 1.5×10^7 cfu) and after 2 hours the mice were split into three groups and injected with:\n(A) Group 1—100 μl solution of 10 mM ammonium acetate (AAT; pH 9), followed by 100 μl amphotericin B equivalent to 0.6 mg/kg in a 5% (w/v) glucose solution;\n(B) Group 2—100 μl solution of 10 mM AAT (pH 9) solution containing 500 μg anti-hsp90 antibody, followed by 100 μl amphotericin B equivalent to 0.6 mg/kg in a 5% (w/v) glucose solution; and\n(C) Group 3—100 μl solution of 10 mM AAT (pH 9) containing 50 μg anti-hsp90 antibody, followed by 100 μl amphotericin B equivalent to 0.6 mg/kg in a 5% (w/v) glucose solution.\nThe animals were culled after 48 hours and yeast counts on Sabouraud's plates of liver, spleen and kidney tissue performed."}, "[7]": {"system": "Aspergillus flavus", "assay": "Aspergillus studies, MIC in microtitre plates", "type": "cell-based", "conditions": "formulation buffer only, read-out: MIC to Amphotericin B", "procedure": "(§7) Isolates of Aspergillus fumigatus, Aspergillus flavus and Aspergillus niger were prepared in RPMI 1640 medium. The suspensions were prepared to give a final inoculum of 2×10^4 conidia per ml and these were dispensed in 100 μl aliquots into flat-bottomed microtitre plates. A double dilution series of Amphotericin B ranging from 250 μg/nil to 0.75 μg/ml was prepared and dispensed to the appropriate wells. Mycograb was added to each of the wells at a final concentration of 100 μg/ml in formulation buffer. A control series was also prepared for each isolate which contained formulation buffer only."}, "[8]": {"system": "C. albicans (Fluconazole resistant)", "assay": "Broth microdilution test (MIC, colony counts)", "type": "cell-based, Candida albicans", "protocol": "as §1, §2, §3\nTwofold dilutions ([…] for amphotericin B and 400 to 0.4 mg/ml for fluconazole) were prepared in RPMI broth starting from the two stock solutions. A 100 μl suspension of the inoculum diluted 1 in 10 (equivalent to 1×10^3 cfu) was added to the microtiter plates. To this was added 50 μl of the antifungal and then 50 μl of the antibody. Antibody was either neat (0.4 mg/mil), or diluted to 1/10or 1/100. When antibody was absent, the 50 μl volume was made up by RPMI. […]\nColony counts were determined for the wells where there was a visual reduction in yeast growth. […]"}, "[9]": {"system": "Aspergillus niger", "assay": "Aspergillus studies, MIC in microtitre plates", "type": "cell-based", "conditions": "formulation buffer only, read-out: MIC to Amphotericin B", "procedure": "as §7"}, "[10]": {"system": "Aspergillus fumigatus (NCPF #2109)", "assay": "Aspergillus studies, MIC in microtitre plates", "type": "cell-based", "conditions": "NCPF2109, formulation buffer only, read-out: MIC to Amphotericin B", "procedure": "as §7"}, "[11]": {"conditions": "read-out: MIC to amphotericin B"}, "[12]": {"conditions": "antibody 0.313 μg/ml, no antifungal agent"}}, "note": "Like-named read-outs stand apart in the source and are kept apart here.", "data": [{"molecule": "OC(Cn1cncn1)(Cn1cncn1)c1ccc(F)cc1F", "note": "[Fluconazole, fluconazole]", "values": [{"measurement": "MIC", "setting": "[1]; read-out: MIC to fluconazole", "result": 100, "unit": "µg/mL"}, {"measurement": "Colony counts", "setting": "[1]; fluconazole 25 μg/ml", "result": "3.2 × 10^7 cfu/ml"}, {"measurement": "Colony counts", "setting": "[1]; fluconazole 50 μg/ml", "result": "1.6 × 10^7 cfu/ml"}, {"measurement": "MIC", "setting": "[2]; read-out: MIC to fluconazole", "result": 3.12, "unit": "µg/mL"}, {"measurement": "Colony counts", "setting": "[2]; fluconazole 0.09 μg/ml, no antibody", "result": "5 × 10^5 cfu/ml"}, {"measurement": "MIC", "setting": "[3]; read-out: MIC to fluconazole", "result": 6.25, "unit": "µg/mL"}, {"measurement": "Colony counts", "setting": "[3]; fluconazole 3.13 μg/ml", "result": "2.6 × 10^6 cfu/ml"}, {"measurement": "Colony counts", "setting": "[4]; C. albicans outbreak strain, fluconazole 0.09 μg/ml, no antibody", "result": "3.6 × 10^5 cfu/ml"}, {"measurement": "MIC", "setting": "[5]; no antibody, read-out: MIC to fluconazole", "result": 1.56, "unit": "µg/mL"}]}, {"molecule": "C[C@@H]1[C@H](O)[C@@H](C)/C=C/C=C/C=C/C=C/C=C/C=C/C=C/[C@H](O[C@@H]2O[C@H](C)[C@@H](O)[C@H](N)[C@@H]2O)C[C@@H]2O[C@](O)(C[C@@H](O)C[C@@H](O)[C@H](O)CC[C@@H](O)C[C@@H](O)CC(=O)O[C@H]1C)C[C@H](O)[C@H]2C(=O)O", "note": "[Amphotericin B, amphotericin B]", "values": [{"measurement": "Colonies of C. albicans in tissue", "setting": "[6]; Kidney", "result": "6.80 ± 0.916 cfu/ml, in log10"}, {"measurement": "Colonies of C. albicans in tissue", "setting": "[6]; Liver", "result": "4.26 ± 1.42 cfu/ml, in log10"}, {"measurement": "Colonies of C. albicans in tissue", "setting": "[6]; Spleen", "result": "4.18 ± 1.18 cfu/ml, in log10"}, {"measurement": "MIC", "setting": "[7]", "result": 2.5, "unit": "µg/mL"}, {"measurement": "MIC", "setting": "[8]; Candida albicans, C. albicans fluconazole resistant, no antibody, read-out: MIC to amphotericin B", "result": 0.312, "unit": "µg/mL"}, {"measurement": "MIC", "setting": "[1]; [11]", "result": 0.625, "unit": "µg/mL"}, {"measurement": "MIC", "setting": "[2]; [11]", "result": 0.078, "unit": "µg/mL"}, {"measurement": "MIC", "setting": "[3]; [11]", "result": 0.625, "unit": "µg/mL"}, {"measurement": "Colony counts", "setting": "[3]; amphotericin B 0.313 μg/ml", "result": "3 × 10^6 cfu/ml"}, {"measurement": "Colony counts", "setting": "[3]; amphotericin B 0.626 μg/ml", "result": "6.3 × 10^3 cfu/ml"}, {"measurement": "MIC", "setting": "[4]; Candida albicans, C. albicans (outbreak), no antibody, read-out: MIC to amphotericin B", "result": 0.156, "unit": "µg/mL"}, {"measurement": "MIC", "setting": "[5]; no antibody, read-out: MIC to amphotericin B", "result": 0.039, "unit": "µg/mL"}, {"measurement": "Colony counts", "setting": "[5]; amphotericin B 0.009 μg/ml, no antibody", "result": "1.1 × 10^7 cfu/ml"}, {"measurement": "MIC", "setting": "[9]", "result": 2.5, "unit": "µg/mL"}, {"measurement": "MIC", "setting": "[10]", "result": 2.5, "unit": "µg/mL"}]}, {"molecule": "antibody: antibody of SEQ ID NO: 2 (heavy, light and spacer domains) recognising Candida albicans hsp90 epitope SEQ ID NO: 1, expressed in E. coli (protein) scFv: HMAEVQLVESGAEVKKPGESLRISCKGSGCIISSYWISWVRQMPGKGLEWMGKIDPGDSYINYSPSFQGHVTISADKSINTAYLQWNSLKASDTAMYYCARGGRDFGDSFDYWGQGTLVTVSSGGGGSGGGGSGGGGSDVVMTQSPSFLSAFVGDRITITCRASSGISRYLAWYQQAPGKAPKLLIYAASTLQTGVPSRFSGSGSGTEFTLTINSLQPEDFATYYCQHLNSYPLTFGGGTKVDIKRAA", "values": [{"measurement": "Effect of antibody on its own against yeast growth", "setting": "[8]; C. albicans (fluconazole resistant), antibody 0.313 μg/ml, no antifungal agent", "result": "6 × 10^6 cfu/ml"}, {"measurement": "Effect of antibody on its own against yeast growth", "setting": "[1]; [12]", "result": "1.6 × 10^6 cfu/ml"}, {"measurement": "Effect of antibody on its own against yeast growth", "setting": "[2]; [12]", "result": "6.0 × 10^5 cfu/ml"}, {"measurement": "Effect of antibody on its own against yeast growth", "setting": "[3]; [12]", "result": "2.6 × 10^4 cfu/ml"}, {"measurement": "Effect of antibody on its own against yeast growth", "setting": "[4]; C. albicans (outbreak), antibody 0.313 μg/ml, no antifungal agent", "result": "5.6 × 10^6 cfu/ml"}, {"measurement": "Effect of antibody on its own against yeast growth", "setting": "[5]; [12]", "result": "1.2 × 10^7 cfu/ml"}]}]}
